PubChem BioAssay (NCI)
Values joined by “and” are separate entries in the source; they are usually repeats but may differ in a detail not shown here. Equal values may be shown once.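 Cultured in 96-well plates, cells were exposed to test compound for 48 hours across five concentrations. TGI denotes the concentration required for complete inhibition of growth.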

Experiments:
Assay in all cases: growth of human tumour cells (NCI), 48 h
[1] = test system: UACC-62 melanoma
[2] = test system: SN12C renal
[3] = test system: MOLT-4 leukemia
[4] = test system: UACC-257 melanoma
[5] = test system: MDA-MB-435
[6] = test system: TK-10 renal
[7] = test system: M14 melanoma
[8] = test system: OVCAR-5 ovarian
[9] = test system: OVCAR-3 ovarian
[10] = test system: OVCAR-8 ovarian

SMILES	TGI [1]	TGI [2]	TGI [3]	TGI [4]	TGI [5]	TGI [6] [µM]	TGI [7]	TGI [8]	TGI [9]	TGI [10]
NC(N)=Nc1ccc(CC(N)C(=O)O)cc1 (configuration not stated)	> 12.5 µM	> 12.5 µM	> 12.5 µM	> 12.5 µM	> 12.5 µM	> 12.5	> 12.5 µM	> 12.5 µM	> 12.5 µM	> 12.5 µM
O=C1CSC(c2cccc([N+](=O)[O-])c2)N1c1ccc(-n2c(-c3ccccc3)nc3ccccc3c2=O)cc1 (configuration not stated)	> 100 µM	> 100 µM	> 100 µM	> 100 µM	> 100 µM	> 100	> 100 µM	> 100 µM	> 100 µM	> 100 µM
O=[N+]([O-])c1cc(-c2nc(-c3ccccc3)c(-c3ccccc3)[nH]2)c(O)c([N+](=O)[O-])c1	33.8 µM	77.4 µM	61.7 µM	50.9 µM	95.3 µM	65.8	46.4 µM	50.3 µM	> 100 µM	> 100 µM
O=C1CC(c2ccccc2)n2cccc21 (configuration not stated)	> 100 µM	> 100 µM		> 100 µM	> 100 µM	> 100	> 100 µM	> 100 µM	> 100 µM	> 100 µM
CCCCn1c2c(n(CCCC)c1=S)-c1c(n(CCCC)c(=S)n1CCCC)SSc1c(n(CCCC)c(=S)n1CCCC)-c1c(n(CCCC)c(=S)n1CCCC)SSc1c(n(CCCC)c(=S)n1CCCC)-c1c(n(CCCC)c(=S)n1CCCC)SS2	20.3 µM	> 50 µM	> 50 µM	> 50 µM	> 42.1 µM	> 50	> 50 µM	25.4 µM	14.6 µM	> 13.6 µM
CCN1CCC(O)(c2ccc(Cl)cc2)C(C(=O)c2ccc(Cl)cc2)C1 (configuration not stated)	> 100 µM	> 100 µM	> 100 µM	> 100 µM		> 100	> 100 µM	> 100 µM	> 100 µM	> 100 µM
COC(=O)C1OC(O[C@H]2CC[C@]3(C)[C@H]4CC=C5[C@@H]6CC(C)(C)CC[C@]6(C(=O)OC6OCC(O)C(O)C6OC6OC(C)C(OC7OCC(O)C(O)C7O)C(O)C6O)CC[C@@]5(C)[C@]4(C)CC[C@H]3C2(C)C)C(O)C(O)C1O (some centres not stated)	32 µM and 32.5 µM	27.1 µM and 31.2 µM	38.9 µM and 45 µM	27.4 µM and 29.7 µM	33.8 µM and 32.1 µM		28.6 µM and 32.5 µM	31.4 µM and 42.8 µM	97.6 µM and > 100 µM	40.7 µM and 42.8 µM
CC1=C(C)Cc2c(O)ccc(O)c2C1	30.1 µM	45.8 µM	97.2 µM	32.2 µM	30.5 µM	36.9	30 µM	38.6 µM	43.2 µM	32.1 µM
O=C1Oc2cc(O)cc(/C=C/c3ccc(O)cc3)c2[C@@]12c1c(O)cc(O)cc1OC2c1cccc(O)c1 (some centres not stated)	68 µM	78 µM	> 100 µM	67.5 µM	66.1 µM	> 100	> 100 µM	92.4 µM	> 100 µM	> 100 µM
O=C1c2ccc(O)c(O)c2C(=O)c2c(O)ccc(O)c21	41.6 µM	56.7 µM	62.2 µM	49.3 µM		> 100	54 µM	76.5 µM	49.7 µM	80.8 µM
C=C1CCC([N+](=O)[O-])[C@](C)(N=O)CC[C@@H]2C1CC2(C)C (some centres not stated)		> 100 µM	> 100 µM	46.2 µM		76.1	> 100 µM	36.1 µM	56.3 µM	48 µM
COc1ccc(SCc2cc(OCc3ccccc3)c(OCc3ccccc3)c(OCc3ccccc3)c2)cc1		3.49 µM	3.3 µM	3.09 µM	3.33 µM	3.32	3.57 µM	3.4 µM	3.04 µM	3.59 µM
COc1cc(Cc2nccc3cc(OC)c(OC)cc23)c(N=NN(C)C)cc1OC	28.9 µM	41.3 µM	90.3 µM	44.9 µM	47.3 µM	44.1	39.3 µM	40.9 µM	73.9 µM	60 µM
COC(=O)C1(C)C=CC(=O)C2(C)C1C(O)C1OC3CC(c4ccoc4)C(C)=C3C1(C)C2CC(=O)O (configuration not stated)	> 100 µM	> 100 µM	> 100 µM	> 100 µM	> 100 µM	> 100	> 100 µM	> 100 µM	> 100 µM	> 100 µM
C=C(C)[C@@H]1CCC2=C[C@H](OC2=O)[C@@]2(C)C[C@@H]2C2=CC(C)=C(O2)[C@H]1O	> 75 µM	> 75 µM	> 75 µM	> 75 µM	> 75 µM	> 75	> 75 µM	> 75 µM	> 75 µM	> 75 µM
COC(=O)c1ccccc1C1CN=NC12Cc1cc(C)ccc1C2=O (configuration not stated)	> 100 µM	> 100 µM	> 100 µM	> 100 µM	> 100 µM	> 100	> 100 µM	> 100 µM	> 100 µM	> 100 µM
CCOC(=O)c1c(N2CCOCC2)[nH]c(=O)c(C(c2ccco2)c2c(O)c(C(=O)OCC)c(N3CCOCC3)[nH]c2=O)c1O	> 100 µM	> 100 µM	> 100 µM	> 100 µM	> 100 µM	> 100	> 100 µM	> 100 µM	> 100 µM	> 100 µM
CCOC(=O)c1ccc(N=c2sc3ccccc3nc2Nc2ccc(C(=O)OCC)cc2)cc1	> 100 µM	> 100 µM	> 100 µM	> 100 µM	> 100 µM	> 100		> 100 µM		> 100 µM
Nc1nc2c3nc(Nc4ccccc4)sc3nc(=O)n2c2sc(Nc3ccccc3)nc12	> 100 µM	> 100 µM	> 100 µM	> 100 µM			> 100 µM			> 100 µM
COc1cc(CNNC(N)=S)cc(OC)c1OC		> 100 µM	> 100 µM	> 100 µM	> 100 µM	> 100	> 100 µM	> 100 µM	> 100 µM	> 100 µM
Cc1cn(CC2=NCC(C)N2)c(=O)[nH]c1=O (configuration not stated)	> 100 µM	> 100 µM	> 100 µM	> 100 µM		> 100	> 100 µM	> 100 µM		> 100 µM
CCN(CC)C(=O)C(C)n1cc(C)c(=O)[nH]c1=O (configuration not stated)	> 100 µM	> 100 µM	> 100 µM			> 100	> 100 µM	> 100 µM	> 100 µM	> 100 µM

SMILES	TGI [1]	TGI [2]	TGI [3]	TGI [4]	TGI [5]	TGI [6] [µM]	TGI [7]	TGI [8]	TGI [9]	TGI [10]
C=CCc1cccc2cc(C(=O)Nc3ccccn3)c(=N)oc12	> 100 µM	> 100 µM	> 100 µM	> 100 µM	> 100 µM		> 100 µM	> 100 µM	> 100 µM	> 100 µM
CCCC(=O)OC1C(CO)OC(n2cc(F)c(=O)[nH]c2=O)C1F (configuration not stated)	> 100 µM	> 100 µM	> 100 µM	> 100 µM	> 100 µM	> 100		> 100 µM	> 100 µM	> 100 µM
CC1(C)CCC[C@]2(C)[C@H]3[C@H](C#N)c4cc(O)c(O)cc4O[C@@]3(C)CC[C@@H]12		> 10 µM	> 10 µM	> 10 µM		> 10	> 10 µM	> 10 µM	> 10 µM	> 10 µM
Cc1ccc2c(c1)-c1nc(N)c(C#N)c(-c3ccccc3)c1CCS2(=O)=O	> 100 µM	> 100 µM		> 100 µM	> 100 µM	61	> 100 µM	> 100 µM	> 100 µM	56.5 µM
CC(C)/C(Cl)=N\OC(=O)Nc1cccc(Cl)c1	46.3 µM	32.4 µM	7.88 µM	26.8 µM		28.6	11 µM	18.3 µM	10.8 µM	29.4 µM
CCC(=O)Nc1ccc(N2C(=O)C(Cl)C2c2ccc(SC)cc2)cc1 (configuration not stated)	> 100 µM	> 100 µM	> 100 µM	> 100 µM	> 100 µM		> 100 µM	> 100 µM	> 100 µM	> 100 µM
COc1ccc(-c2cc3[nH]nc(N)c3c(=O)o2)cc1		> 100 µM	> 100 µM	> 100 µM		> 100	> 100 µM	> 100 µM		> 100 µM
N#Cc1ccc(-n2c3ccccc3c3ccc4c(c32)C(=O)C=CC4=O)cc1	15.6 µM	14.2 µM		13.9 µM	4.39 µM	8.83	7.57 µM	34.8 µM	11.1 µM	> 58.7 µM
COC(=O)c1c2cccccc-2c(Cc2c3cccccc-3c(C(=O)OC)c2O)c1O	> 100 µM	> 100 µM	> 100 µM	> 100 µM		> 100	> 100 µM	> 100 µM	> 100 µM	> 100 µM
CC(=O)Nc1c(C)cc2c(nc3n2CCC3O)c1[N+](=O)[O-] (configuration not stated)	> 100 µM	> 100 µM	> 100 µM	> 100 µM	> 100 µM		> 100 µM	> 100 µM	> 100 µM	> 100 µM
C[C@@H]1CC[C@@H]2[C@@H](C1)O[C@@H]([C@H](C)OCc1ccccc1)SC2(C)C	> 100 µM	42.4 µM	34.9 µM	73.3 µM	> 100 µM	> 100	47.1 µM	31.7 µM		> 100 µM
CCOC(=O)NC(Nc1ccc(C(=O)OCC)cc1)(C(F)(F)F)C(F)(F)F	> 100 µM	> 100 µM	> 100 µM		> 100 µM	> 100	> 100 µM	> 100 µM	> 100 µM	> 100 µM
O=c1/c(=C/c2ccc(-c3ccc(Cl)cc3Cl)o2)sc2n1[C@@H](c1ccc(Cl)cc1)C=C(c1cc(F)c(Cl)cc1Cl)N=2	> 100 µM	> 100 µM	67.9 µM	> 100 µM	> 100 µM	> 100	> 100 µM	> 100 µM		> 100 µM
COCN1C(=O)[C@@H]2CCCN2C(=O)c2cc(N)ccc21	> 100 µM	> 100 µM		> 100 µM	> 100 µM	> 100	> 100 µM	> 100 µM		> 100 µM
CC(=O)O[C@H]1C(=O)[C@@]2(C)C(C(OC(=O)c3ccccc3)C3[C@@H](O)C(OC(=O)[C@@H](O)[C@H](NC(=O)c4ccccc4)c4ccc(C(F)(F)F)cc4)C(C)=C1C3(C)C)[C@]1(OC(C)=O)CO[C@@H]1C[C@@H]2O (some centres not stated)	> 25 µM	> 25 µM	> 25 µM	> 25 µM		> 25	> 25 µM	> 25 µM	> 25 µM	> 25 µM
CC(=O)OCC1OC(n2c(-c3ccc(C)cc3)cc(-c3ccccc3)c(C#N)c2=S)C(OC(C)=O)C(OC(C)=O)C1OC(C)=O (configuration not stated)	> 100 µM	> 100 µM	> 100 µM		> 100 µM	> 100	> 100 µM	> 100 µM	> 100 µM	> 100 µM
Nn1c(Cc2ccc([N+](=O)[O-])cc2)n[nH]c1=O	> 100 µM	> 100 µM	> 100 µM	> 100 µM	> 100 µM		> 100 µM	> 100 µM	> 100 µM	> 100 µM
COc1cc(/C=c2\sc3n(c2=O)C(c2ccc(Cl)cc2)C2=C(CCCC2C)N=3)cc(OC)c1OC (configuration not stated)	> 100 µM	> 100 µM	> 100 µM	> 100 µM	> 100 µM	> 100	> 100 µM	> 100 µM		> 100 µM
CN(C)c1nc(Cl)c2c(-c3ccccc3)c(-c3ccccc3)oc2n1	> 100 µM	> 100 µM	96.2 µM	> 100 µM	> 100 µM	> 100	> 100 µM	> 100 µM		> 100 µM
COC(=O)C(CCSC)NC(=O)Cc1ccc(C(=O)c2ccccc2)cc1 (configuration not stated)	> 100 µM	> 100 µM	> 100 µM	> 100 µM	93.6 µM		> 100 µM	> 100 µM	> 100 µM	> 100 µM
COI1NC(=O)c2ccccc21	> 100 µM	> 100 µM	> 100 µM		> 100 µM	> 100	> 100 µM	> 100 µM	> 100 µM	> 100 µM
